We go through 8 molecules from paper PMC8362273 (Molecular cell, 2020).

One series deals with Gsk(K383A). The series is classed as biochemical, E. coli. The conditions noted are these: Figure 2F, S4A.
In series [1] the test system is Gsk. The conditions noted are these: ref Kawasaki et al., 2000, cited from earlier work; for Km: Mori et al., 1995.
For series [2], the target named is Gsk (inosine-guanosine kinase) (Escherichia coli, UniProt P0AEW6). As to the kind of experiment: Isothermal titration calorimetry. The series is classed as binding, E. coli. Background: ITC needs no label: the signal is the heat of the interaction.
For series [3], the system named is Gsk. As to the kind of experiment: Inosine/guanosine kinase. The series is classed as biochemical, E. coli.
The test system of series [4] is Gsk. Kind of series: Inosine kinase. The series is classed as biochemical, E. coli. The conditions noted are these: GuaB-coupled assay (Figure 1C).
The subject of the next series is GuaB (IMP dehydrogenase). As to the kind of experiment: IMP-dehydrogenase. It counts as biochemical, E. coli. The note with it: ppGpp up to 1 mM (Figure S1B).
The subject of series [5] is Gsk variants R7A, F321A, K383A, S393A, Q396A. The note with it: each of R7A, in vitro (Figure 2G).
Series [6] has as its target PurA (adenylosuccinate synthase) (Escherichia coli, UniProt P0A7D4). Kind of series: ITC of ppGpp with PurA. It counts as binding, E. coli.
Series [7] concerns the molecule itself. As to the kind of experiment: SEC-MALS. In general terms: In gel filtration, larger molecules generally elute earlier.
Series [8] concerns the molecule itself. As to the kind of experiment: SEC-MALS. This is another data set of the same source.
The series “dynamic light scattering” concerns the molecule itself. As to the kind of experiment: dynamic light scattering.
The series “crystal structure” deals with the molecule itself. As to the kind of experiment: crystal structure.

“Also recorded” adds a separate entry of the source. Where two headings read alike, the source gives them in different places.

Chain of PurA (adenylosuccinate synthase) (P0A7D4 whole entry): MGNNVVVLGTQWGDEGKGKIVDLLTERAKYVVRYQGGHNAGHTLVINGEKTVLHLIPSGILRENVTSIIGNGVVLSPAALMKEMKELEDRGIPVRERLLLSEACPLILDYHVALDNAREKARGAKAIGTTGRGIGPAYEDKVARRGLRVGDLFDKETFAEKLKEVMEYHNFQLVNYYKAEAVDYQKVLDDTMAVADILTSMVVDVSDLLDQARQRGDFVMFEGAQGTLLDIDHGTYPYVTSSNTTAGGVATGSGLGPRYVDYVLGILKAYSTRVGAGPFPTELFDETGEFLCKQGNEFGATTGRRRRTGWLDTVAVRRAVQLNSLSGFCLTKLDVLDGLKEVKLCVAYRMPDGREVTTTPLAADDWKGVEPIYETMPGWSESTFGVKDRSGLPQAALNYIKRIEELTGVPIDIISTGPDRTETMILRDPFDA

As to `Nc1nc2c(ncn2[C@@H]2O[C@H](COP(=O)(O)OP(=O)(O)O)[C@@H](O)[C@H]2O)c(=O)[nH]1` [GDP], the “sensitivity of Gsk(K383A) to inhibitor” value in the series on Gsk(K383A) was “completely insensitive”. The “feedback inhibition of Gsk” value in the series on Gsk [1] was “provides feedback inhibition”.

Take `Nc1nc2c(ncn2[C@@H]2O[C@H](CO)[C@@H](O)[C@H]2O)c(=O)[nH]1` [guanosine]: the Km (in general, the substrate concentration at which the rate is half of its maximum) in the series on Gsk [1] (read-out: Km of Gsk for guanosine) was 8 µM. Further, the “gain in binding heat for guanosine when Gsk is bound to ppGpp” value in [2] (ITC, Gsk saturated with ppGpp vs without) stood at 8.7 kcal/mol.

For the molecule `O=c1[nH]cnc2c1ncn2[C@@H]1O[C@H](CO)[C@@H](O)[C@H]1O` [inosine], the Km in the series with Gsk [1] (read-out: Km of Gsk for inosine) is 1500 µM.

Take `Nc1nc2c(ncn2[C@@H]2O[C@H](COP(=O)(O)OP(=O)(O)O)[C@@H](OP(=O)(O)OP(=O)(O)O)[C@H]2O)c(=O)[nH]1` [ppGpp, Guanosine tetraphosphate]: the “type of inhibition with respect to ATP” value with Gsk [3] (1 mM inosine, varied ATP-Mg) is “mixed-type inhibitor”. In the series with Gsk [3] (Lineweaver-Burk plotting, 5 mM ATP-Mg, varied inosine), the “type of inhibition with respect to inosine” value is listed as “counter-competitive, or cooperative, inhibitor”. Further, in the series on Gsk [3] (guanosine kinase activity, 50 nM Gsk (Figure 3J)), the “fold inhibition of Gsk by ppGpp binding” value is recorded as ~ 60 fold. Moreover, the “inhibition of inosine- and guanosine-kinase activities of Gsk” value in the series with Gsk [3] (in vitro, PK-LDH coupled (Figure S1A)) is recorded as “potently inhibited”. Further, the “sensitivity of Gsk(K383A) to inhibitor” value with Gsk(K383A) was “completely insensitive”. Further, the “inhibition of inosine-kinase activity compared with GDP” value with Gsk [4] is reported as “stronger inhibitor than GDP”. For the same molecule, the “inhibition of GuaB” value with GuaB (IMP dehydrogenase) is “did not observe substantial inhibition; also recorded: could not reproduce the inhibition”. For the same molecule, the Kd (usually a measure of binding affinity in units of concentration) was 0.1 µM in series [2] and 61 µM in series [6]. For the same molecule, the “affinity for Gsk relative to that for GDP (fold stronger)” value in series [2] (ITC) was “about 20 fold”. Also, the “gain in binding heat of ppGpp when Gsk is bound to guanosine” value in series [2] (ITC, Gsk pre-saturated with guanosine vs without) is 10.8 kcal/mol. For the same molecule, in [5], the “loss of sensitivity to ppGpp inhibition (fold less sensitive than WT Gsk)” value is “at least 5 fold”.

Consider `Nc1nc2c(ncn2[C@@H]2O[C@H](COP(=O)(O)OP(=O)(O)OP(=O)(O)O)[C@@H](OP(=O)(O)OP(=O)(O)O)[C@H]2O)c(=O)[nH]1` [pppGpp, Guanosine pentaphosphate], for which the “affinity for Gsk” value in series [2] (ITC (Figure S2I, Table S1), compared with ppGpp) is reported as “much weaker affinity”.

B1: Gsk, inosine-guanosine kinase (E. coli), wild type, traceless after Sumo release (enzyme, UniProt P0AEW6 1-434, looked up)
chain: MKFPGKRKSKHYFPVNARDPLLQQFQPENETSAAWVVGIDQTLVDIEAKVDDEFIERYGLSAGHSLVIEDDVAEALYQELKQKNLITHQFAGGTIGNTMHNYSVLADDRSVLLGVMCSNIEIGSYAYRYLCNTSSRTDLNYLQGVDGPIGRCFTLIGESGERTFAISPGHMNQLRAESIPEDVIAGASALVLTSYLVRCKPGEPMPEATMKAIEYAKKYNVPVVLTLGTKFVIAENPQWWQQFLKDHVSILAMNEDEAEALTGESDPLLASDKALDWVDLVLCTAGPIGLYMAGFTEDEAKRKTQHPLLPGAIAEFNQYEFSRAMRHKDCQNPLRVYSHIAPYMGGPEKIMNTNGAGDGALAALLHDITANSYHRSNVPNSSKHKFTWLTYSSLAQVCKYANRVSYQVLNQHSPRLTRGLPEREDSLEESYWDR
Take B1: the figures for the “stoichiometry N” value in the series “SEC-MALS [7]” and in “SEC-MALS [8]” were 4 and 2, respectively.

B2: Gsk(L308S) (enzyme, E. coli, UniProt P0AEW6 1-434, looked up)
chain: MKFPGKRKSKHYFPVNARDPLLQQFQPENETSAAWVVGIDQTLVDIEAKVDDEFIERYGLSAGHSLVIEDDVAEALYQELKQKNLITHQFAGGTIGNTMHNYSVLADDRSVLLGVMCSNIEIGSYAYRYLCNTSSRTDLNYLQGVDGPIGRCFTLIGESGERTFAISPGHMNQLRAESIPEDVIAGASALVLTSYLVRCKPGEPMPEATMKAIEYAKKYNVPVVLTLGTKFVIAENPQWWQQFLKDHVSILAMNEDEAEALTGESDPLLASDKALDWVDLVLCTAGPIGLYMAGFTEDEAKRKTQHPSLPGAIAEFNQYEFSRAMRHKDCQNPLRVYSHIAPYMGGPEKIMNTNGAGDGALAALLHDITANSYHRSNVPNSSKHKFTWLTYSSLAQVCKYANRVSYQVLNQHSPRLTRGLPEREDSLEESYWDR
For B2, the stoichiometry N – broadly, a count of units in the complex or per binding partner – in the series “dynamic light scattering” was found to be 2.

B3: Gsk, inosine-guanosine kinase (E. coli), crystallisation construct with N-terminal Gly-Ser-His scar (enzyme)
chain: GSHMKFPGKRKSKHYFPVNARDPLLQQFQPENETSAAWVVGIDQTLVDIEAKVDDEFIERYGLSAGHSLVIEDDVAEALYQELKQKNLITHQFAGGTIGNTMHNYSVLADDRSVLLGVMCSNIEIGSYAYRYLCNTSSRTDLNYLQGVDGPIGRCFTLIGESGERTFAISPGHMNQLRAESIPEDVIAGASALVLTSYLVRCKPGEPMPEATMKAIEYAKKYNVPVVLTLGTKFVIAENPQWWQQFLKDHVSILAMNEDEAEALTGESDPLLASDKALDWVDLVLCTAGPIGLYMAGFTEDEAKRKTQHPLLPGAIAEFNQYEFSRAMRHKDCQNPLRVYSHIAPYMGGPEKIMNTNGAGDGALAALLHDITANSYHRSNVPNSSKHKFTWLTYSSLAQVCKYANRVSYQVLNQHSPRLTRGLPEREDSLEESYWDR
With B3, the binding result in the series “crystal structure” is given as “binds”.
